Measurements reported in patent US20240408098A1, “COMBINATIONS OF KRAS G12D INHIBITORS WITH PI3Ka INHIBITORS AND RELATED METHODS OF TREATMENT” (MIRATI THERAPEUTICS, INC., priority 2021, published 2024).

Experiments:
Type in all cases: in vivo
[1] = tested on: LS180 colon cancer cell line; test: LS180 xenograft in nude/nude mice, average tumor volumes; conditions: for Average Tumor Volumes: nude/nude mice, 15 mg/kg QD
Protocol: (§1) Immunocompromised nude/nude mice are inoculated in the right hind flank with cells harboring a KRas G12D mutation. When tumor volumes reach between 200-400 mm^3 in size, the mice are divided into four to five groups of 5 mice each. The first group is administered vehicle only. […] The fourth group is administered the single agent dose of the KRas G12D inhibitor using the twice daily for 2 sequential days followed by 5 days off schedule in combination with the single agent dose of Irinotecan. The treatment period varies from cell line to cell line but typically is between 15-22-days. Tumor volumes are measured using a caliper every two-three days and tumor volumes are calculated by the formula: […].
(§2) 20 to 25 nude/nude mice per study were inoculated in the right hind limb with 5×10^6 LS180 cells, AsPC-1 cells, GP2D cells, or Panc 02.03 cells. When tumor volumes reached ˜200 mm3-400 mm3 (study day 0) 5 mice in each of the groups were administered i.p. vehicle only (10% captisol in 50 mM citrate buffer pH 5.0), 30 mg/kg of Kras G12D inhibitor MRTX1133 (10% captisol in 50 mM citrate buffer, pH 5.0) either on the twice daily schedule or the twice daily for 2 consecutive days followed by 5 days off schedule, 15 mg/kg once daily of the BYL719 (0.5% methylcellulos) PI3Ka inhibitor, or 30 mg/kg of Kras G12D inhibitor on either schedule and BYL719. Tumor volumes, measured at pre-specified days, for the five mice per group were averaged and are reported for LS180, AsPC-1, GP2D, and Panc 02.03 in Tables 1, 2, 3, and 4, respectively.
25 nude/nude mice were inoculated with LS180 cells in the hind right flank. When the tumors reached ˜250 mm^3 five treatment groups were established with 5 mice per group.

[2] = tested on: PANC0203 pancreatic cancer cell line; test: Panc 02.03 xenograft in nude/nude mice, average tumor volumes; conditions: 15 mg/kg QD
Protocol: as §1, §2
20 nude/nude mice were inoculated with Panc 02.03 cells in the hind right flank. When the tumors reached ˜300 mm^3 four treatment groups were established with 5 mice per group.

[3] = tested on: GP2D colorectal cancer cell line; test: GP2D xenograft in nude/nude mice, average tumor volumes
Protocol: as §1
as §2, with “respectively. […]” for “respectively.”

[4] = tested on: AsPC-1 pancreatic cancer cell line; test: AsPC-1 xenograft in nude/nude mice, average tumor volumes; conditions: for tumor growth inhibition: single agent; for Average Tumor Volumes: nude/nude mice, 15 mg/kg QD
Protocol: as §1, §2
30 nude/nude mice were inoculated with AsPC-1 cells in the hind right flank. When the tumors reached ˜300 mm^3 six treatment groups were established with 5 mice per group.

Compound: Cc1nc(NC(=O)N2CCC[C@H]2C(N)=O)sc1-c1ccnc(C(C)(C)C(F)(F)F)c1 [BYL719, (2S)-N1-[4-Methyl-5-[2-(2,2,2-trifluoro-1,1-dimethylethyl)-4-pyridinyl]-2-thiazolyl]-1,2-pyrrolidinedicarboxamide]
- tumor growth inhibition ([1]; 15 mg/kg once daily, single agent, Day 15): 44%
- Average Tumor Volumes ([1]; Study Day 1): 273.184 mm^3
- Average Tumor Volumes ([1]; Study Day 4): 501.45 mm^3
- Average Tumor Volumes ([1]; Study Day 8): 799.338 mm^3
- Average Tumor Volumes ([1]; Study Day 11): 1016.09 mm^3
- Average Tumor Volumes ([1]; Study Day 15): 1225.468 mm^3
- Average Tumor Volumes ([2]; Study Day 1): 330.188 mm^3
- Average Tumor Volumes ([2]; Study Day 4): 341.414 mm^3
- Average Tumor Volumes ([2]; Study Day 8): 367.35 mm^3
- Average Tumor Volumes ([2]; Study Day 11): 487.664 mm^3
- Average Tumor Volumes ([2]; Study Day 15): 572.82 mm^3
- Average Tumor Volumes ([2]; Study Day 18): 680.306 mm^3
- Average Tumor Volumes ([2]; Study Day 22): 774.992 mm^3
- Average Tumor Volumes ([3]; 15 mg/kg QD, Study Day 1): 307.604 mm^3
- Average Tumor Volumes ([3]; 15 mg/kg QD, Study Day 7): 369.474 mm^3
- Average Tumor Volumes ([3]; 15 mg/kg QD, Study Day 10): 395.68 mm^3
- Average Tumor Volumes ([3]; 15 mg/kg QD, Study Day 14): 467.526 mm^3
- Average Tumor Volumes ([3]; 15 mg/kg QD, Study Day 17): 546.962 mm^3
- Average Tumor Volumes ([3]; 15 mg/kg QD, Study Day 21): 681.056 mm^3
- Average Tumor Volumes ([3]; 15 mg/kg QD, Study Day 26): 901.144 mm^3
- Average Tumor Volumes ([3]; 15 mg/kg QD, Study Day 28): 1053.732 mm^3
- Average Tumor Volumes ([3]; 15 mg/kg QD, Study Day 31): 1102.87 mm^3
- Average Tumor Volumes ([3]; 15 mg/kg QD, Study Day 35): 1202.89 mm^3
- tumor growth inhibition ([4]; 15 mg/kg once daily, Day 34): 0%
- Average Tumor Volumes ([4]; Study Day 1): 331.29 mm^3
- Average Tumor Volumes ([4]; Study Day 6): 429.172 mm^3
- Average Tumor Volumes ([4]; Study Day 9): 473.138 mm^3
- Average Tumor Volumes ([4]; Study Day 13): 531.394 mm^3
- Average Tumor Volumes ([4]; Study Day 16): 580.446 mm^3
- Average Tumor Volumes ([4]; Study Day 20): 688.564 mm^3
- Average Tumor Volumes ([4]; Study Day 23): 742.98 mm^3
- Average Tumor Volumes ([4]; Study Day 27): 918.424 mm^3
- Average Tumor Volumes ([4]; Study Day 30): 1283 mm^3
- Average Tumor Volumes ([4]; Study Day 34): 1622 mm^3

Compound: C#Cc1c(F)ccc2cc(O)cc(-c3ncc4c(N5C[C@H]6CC[C@@H](C5)N6)nc(OC[C@@]56CCCN5C[C@H](F)C6)nc4c3F)c12 [MRTX1133, 4-(4-((1R,5S)-3,8-diazabicyclo[3.2.1]octan-3-yl)-8-fluoro-2-(((2R,7aS)-2-fluorohexahydro-1H-pyrrolizin-7a-yl)methoxy)pyrido[4,3-d]pyrimidin-7-yl)-5-ethynyl-6-fluoronaphthalen-2-ol]
- Average Tumor Volumes ([3]; 30 mg/kg BID Daily i.p., Study Day 1): 300.778 mm^3
- Average Tumor Volumes ([3]; 30 mg/kg BID Daily i.p., Study Day 7): 263.132 mm^3
- Average Tumor Volumes ([3]; 30 mg/kg BID Daily i.p., Study Day 10): 237.628 mm^3
- Average Tumor Volumes ([3]; 30 mg/kg BID Daily i.p., Study Day 14): 221.728 mm^3
- Average Tumor Volumes ([3]; 30 mg/kg BID Daily i.p., Study Day 17): 221.788 mm^3
- Average Tumor Volumes ([3]; 30 mg/kg BID Daily i.p., Study Day 21): 242.56 mm^3
- Average Tumor Volumes ([3]; 30 mg/kg BID Daily i.p., Study Day 26): 254.57 mm^3
- Average Tumor Volumes ([3]; 30 mg/kg BID Daily i.p., Study Day 28): 307.03 mm^3
- Average Tumor Volumes ([3]; 30 mg/kg BID Daily i.p., Study Day 31): 333.20 mm^3
- Average Tumor Volumes ([3]; 30 mg/kg BID Daily i.p., Study Day 35): 358.75 mm^3
- tumor growth inhibition ([4]; 30 mg/kg BID twice weekly, day 34): 43%
